Counter-ions that a name gives are not always drawn. Like-named read-outs stand apart in the source and are kept apart here.
Biological target: T1, recombinant human MGAT2 enzyme (Homo sapiens, UniProt Q3SYC2)
T1 construct: made in house; host or cells: CHO-K1 (Jump-In CHO-K1 Kit, Life Technologies); microsomal fraction used as the enzyme solution
Test: Test for human MGAT2 activity inhibitory action (14C-oleoyl CoA, recombinant enzyme microsomes)
Type: biochemical
Parameters: key to Potency relative to Comparative Example 1 (higher = more potent): % inhibition = {1−(C−B)/(A−B)}×100, B = 10 μM Comparative Example 1
Conditions: for IC50: read-out: IC50
Description: The human MGAT2 gene described in Am. J. Physiol. Endocrinol. Metab. 285: E927-E937, 2003 was expressed using Jump-In™ CHO-K1 Kit (Life technologies) as described in the attached manual. The cells were suspended in a buffer containing Tris-hydrochloric acid (pH 7.4) at a final concentration of 1 mM, 1 mM ethylenediaminetetraacetic acid, 1 mM dithiothreitol, 250 mM sucrose, and complete protease inhibitor cocktail (Roche applied Science), and then disrupted using a Teflon homogenizer (AS ONE Corporation), followed by centrifugation at 130 g for 10 minutes. The supernatant was further centrifuged at 100,000 g for 1 hour to obtain a pellet as microsomes containing the recombinant enzyme, and a solution obtained by suspending this pellet at a protein concentration of about 800 to 1900 μg/ml was used as an MGAT recombinant enzyme solution.
To a buffer containing 50 mM Tris-hydrochloric acid (pH 7.4), 6 mM magnesium chloride, and 2 mg/mL bovine serum albumin, a test compound was added, and the final concentration of dimethyl sulfoxide was adjusted to 0.3%. Moreover, 2-monooleoyl glycerol, oleoyl CoA, 1-^14C-oleoyl CoA (Perkin Elmer), and orlistat (SIGMA) were added at final concentrations of 50 μM, 50 μM, 2.2 μM, and 8.3 μM, respectively, followed by incubation at 37° C. for 10 minutes. After 10 minutes, the recombinant human MGAT2 enzyme solution was added at a final concentration of 0.67 μg/mL, and the reaction was started, with the amount of the reaction solution being 150 μl. The reaction was carried out at 37° C. for 30 minutes.
After 30 minutes, the reaction was stopped by adding 300 μl of isopropanol:heptane:water=(80:20:2) to the reaction liquid. Further, 200 μl of heptane and 100 μl of water were added, followed by stirring. Then, 100 μl of the upper layer was transferred to a 96-well plate (Corning), and mixed with 100 μl of liquid scintillator (LumaSafe Plus, Lumac). Then, the ^14C count was quantitatively determined using TopCount NXT™ microplate scintillation luminescence counter (Perkin Elmer).
The ^14C count in a case where no test compound was added was defined as A, the ^14C count in a case where 10 μM of the compound (Comparative Example 1) of Example No. 8 of WO2008/038768 was added was defined as B, and the ^14C count in the case where the test compound was added was taken as C. For this case, {1−(C−B)/(A−B)}×100(%) was calculated as the human MGAT2 activity inhibition ratio of the test compound (shown in the column named vs Comp. Ex. 1 in the following Table). A greater value of the “vs Comparative Example 1” means that the MGAT2 activity inhibitory action of the compound of Example was higher as compared to the MGAT2 activity inhibitory action of the compound of Comparative Example 1 (i.e., the human MGAT2 activity inhibition ratio was higher). […] Since this evaluation test was conducted for two separate groups, the test results of the two groups are shown separately in Table (First Test) and Table 4 (Second Test).
Next, the compounds of Examples 25 to 60 of the present invention were also investigated for their pharmacological action by using the same method as in Examples 1 to 24. […] Note that, a comparative evaluation test against the compound of Comparative Example 1 was conducted for each of the compounds of Examples (in every measurement of the inhibitory activity of the compounds of Examples 25 to 60, the inhibitory activity of the compound of Comparative Example 1 was measured). The 50% inhibition concentrations of Comparative Example 1 in the measurement of the inhibitory activities of the compounds of Examples 25 to 60 were shown in Table 5 as “IC50 (nM) of Comparative Example 1.”

[1] = Second Test (Table 4), relative to Comparative Example 1
[2] = Table 5, Examples 25 to 60, same method
[3] = Table 5, relative to Comparative Example 1 measured in the same run
[4] = First Test (Table 3), relative to Comparative Example 1, greater value = higher inhibitory action

T1 sequence (Q3SYC2 whole entry): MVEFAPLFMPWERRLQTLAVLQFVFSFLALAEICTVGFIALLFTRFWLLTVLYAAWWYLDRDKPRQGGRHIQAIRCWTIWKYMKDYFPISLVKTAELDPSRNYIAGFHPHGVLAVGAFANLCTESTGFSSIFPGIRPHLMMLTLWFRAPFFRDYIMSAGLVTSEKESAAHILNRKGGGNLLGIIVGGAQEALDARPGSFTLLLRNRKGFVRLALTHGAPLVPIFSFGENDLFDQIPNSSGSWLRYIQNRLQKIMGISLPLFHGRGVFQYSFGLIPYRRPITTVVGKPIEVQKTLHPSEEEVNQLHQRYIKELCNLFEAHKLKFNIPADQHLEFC

Compound | IC50 [2] [nM] | Potency relative to Comparative Example 1 (higher = more potent) [3] | other results
O=C(CCNCc1ccccc1)N1CCc2nc(SC3CCC3)n(C[C@H]3CCCO3)c(=O)c2C1 [Example 13, 6-[3-(benzylamino)propanoyl]-2-cyclobutylsulfanyl-3-[[(2R)-tetrahydrofuran-2-yl]methyl]-7,8-dihydro-5H-pyrido[4,3-d]pyrimidin-4-one trifluoroacetate] | – | – | IC50 (Second Test (Table 4)): 6.9 nM; Potency relative to Comparative Example 1 (higher = more potent) [1]: 44
O=C(CCNCC(O)COc1ccc(F)cc1)N1CCc2nc(SC3CCC3)n(-c3ccccc3)c(=O)c2C1 (centres unmarked) [Example 44, trifluoroacetate] | 1.8 | 135 | –
O=C(CNCCOc1ccc(F)cc1)N1CCc2nc(SC3CCC3)n(-c3ccccc3)c(=O)c2C1 [Example 51, 2-cyclobutylsulfanyl-6-[2-[2-(4-fluorophenoxy)ethylamino]acetyl]-3-phenyl-7,8-dihydro-5H-pyrido[4,3-d]pyrimidin-4-one trifluoroacetate] | 4.2 | 64 | –
O=C(CCNCc1c(F)cccc1F)N1CCc2nc(SC3CCC3)n(-c3ccccc3)c(=O)c2C1 [Example 35, 2-cyclobutylsulfanyl-6-[3-[(2,6-difluorophenyl)methylamino]propanoyl]-3-phenyl-7,8-dihydro-5H-pyrido[4,3-d]pyrimidin-4-one trifluoroacetate] | 1.1 | 130 | –
O=C(CCNCCNc1ccccc1)N1CCc2nc(SC3CCC3)n(-c3ccccc3)c(=O)c2C1 [Example 38, 6-[3-(2-aminolinoethylamino)propanoyl]-2-cyclobutylsulfanyl-3-phenyl-7,8-dihydro-5H-pyrido[4,3-d]pyrimidin-4-one trifluoroacetate] | 1.4 | 211 | –
Cc1cc2cccc(CNCCC(=O)N3CCc4nc(SC5CCC5)n(-c5ccccc5)c(=O)c4C3)c2o1 [Example 26, 2-cyclobutylsulfanyl-6-[3-[(2-methylbenzofuran-7-yl)methylamino]propanoyl]-3-phenyl-7,8-dihydro-5H-pyrido[4,3-d]pyrimidin-4-one trifluoroacetate] | 1 | 196 | –
O=C(CCNCc1nnc(Cc2ccc(C(F)(F)F)cc2)o1)N1CCc2nc(SC3CCC3)n(-c3ccccc3)c(=O)c2C1 [Example 56, 2-cyclobutylsulfanyl[-3-phenyl-6-[3-[5-[[4-(trifluoromethyl)phenyl]methyl]-1,3,4-oxadiazol-2-yl]methylamino]propanoyl]-7,8-dihydro-5H-pyrido[4,3-d]pyrimidin-4-one trifluoroacetate] | 5.8 | 35 | –
O=C(CNCCc1ccccc1)N1CCc2nc(SC3CCC3)n(-c3ccccc3)c(=O)c2C1 [Example 8, 2-cyclobutylsulfanyl-6-[2-(phenylethylamino)acetyl]-3-phenyl-7,8-dihydro-5H-pyrido[4,3-d]pyrimidin-4-one trifluoroacetate] | – | – | IC50 (First Test (Table 3)): 3.5 nM; Potency relative to Comparative Example 1 (higher = more potent) [4]: 63
O=C(CCNCc1ccccc1F)N1CCc2nc(SC3CCC3)n(-c3ccccc3)c(=O)c2C1 [Example 18, 2-cyclobutylsulfanyl-6-[3-[(2-fluorophenyl)methylammino]propanoyl]-3-phenyl-7,8-dihydro-5H-pyrido[4,3-d]pyrimidin-4-one trifluoroacetate] | – | – | IC50 (Second Test (Table 4)): 2.3 nM; Potency relative to Comparative Example 1 (higher = more potent) [1]: 134
O=C(CNCCOc1ccc(F)c(F)c1)N1CCc2nc(SC3CCC3)n(-c3ccccc3)c(=O)c2C1 [Example 9, 2-cyclobutylsulfanyl-6-[2-[2-(3,4-difluorophenoxy)ethylamino]acetyl]-3-phenyl-7,8-dihydro-5H-pyrido[4,3-d]pyrimidin-4-one trifluoroacetate] | – | – | IC50 (First Test (Table 3)): 3.9 nM; Potency relative to Comparative Example 1 (higher = more potent) [4]: 57
C[C@H](NCCC(=O)N1CCc2nc(SC3CCC3)n(-c3ccccc3)c(=O)c2C1)c1ccccc1 [Example 42, 2-cyclobutylsulfanyl-3-phenyl-6-[3-[[(1S)-1-phenylethyl]amino]propanoyl]-7,8-dihydro-5H-pyrido[4,3-d]pyrimidin-4-one trifluoroacetate] | 1.2 | – | –
C[C@@H](CNCCC(=O)N1CCc2nc(SC3CCC3)n(-c3ccccc3)c(=O)c2C1)c1ccccc1 [Example 36] | 0.7 | 205 | –
O=C(CCNC[C@H](O)c1ccc(F)cc1)N1CCc2nc(SC3CCC3)n(-c3ccccc3)c(=O)c2C1 [Example 43, 2-cyclobutylsulfanyl-6-[3-[[(2R)-2-(4-fluorophenyl)-2-hydroxy-ethyl]amino]propanoyl]-3-phenyl-7,8-dihydro-5H-pyrido[4,3-d]pyrimidin-4-one trifluoroacetate] | 2.5 | – | –
O=C(CNCCCCCNc1ccc(C(F)(F)F)cc1)N1CCc2nc(SC3CCC3)n(-c3ccccc3)c(=O)c2C1 [Example 55, 2-cyclobutylsulfanyl-3-phenyl-6-[2-[5-[4-(trifluoromethyl)anilino]pentylamino]acetyl]-7,8-dihydro-5H-pyrido[4,3-d]pyrimidin-4-one trifluoroacetate] | < 1 | >207 | –
O=C(CNCCCc1ccccc1)N1CCc2nc(SC3CCC3)n(-c3ccccc3)c(=O)c2C1 [Example 2, 2-cyclobutylsulfanyl-3-phenyl-6-[2-(3-phenylpropylamino)acetyl]-7,8-dihydro-5H-pyrido[4,3-d]pyrimidin-4-one trifluoroacetate] | – | – | IC50 (First Test (Table 3)): 1.3 nM; Potency relative to Comparative Example 1 (higher = more potent) [4]: 171
O=C(CCNCCCOc1ccc(F)cc1)N1CCc2nc(SC3CCC3)n(-c3ccccc3)c(=O)c2C1 [Example 47, 2-cyclobutylsulfanyl-6-[3-[3-(4-fluorophenoxy)propylamino]propanoyl]-3-phenyl-7,8-dihydro-5H-pyrido[4,3-d]pyrimidin-4-one trifluoroacetate] | 1.1 | – | –
O=C(CNCCCOc1ccc(F)cc1)N1CCc2nc(SC3CCC3)n(-c3ccccc3)c(=O)c2C1 [Example 50, 2-cyclobutylsulfanyl-6-[2-[3-(4-fluorophenoxy)propylamino]acetyl]-3-phenyl-7,8-dihydro-5H-pyrido[4,3-d]pyrimidin-4-one trifluoroacetate] | 3.7 | 73 | –
O=C(CNCc1ccc(OCc2ccc(C(F)(F)F)cc2)cc1)N1CCc2nc(SC3CCC3)n(-c3ccccc3)c(=O)c2C1 [Example 6, 2-cyclobutylsulfanyl-3-phenyl-6-[2-[[4-[[4-(trifluoromethyl)phenyl]methoxy]phenyl]methylamino]acetyl]-7,8-dihydro-5H-pyrido[4,3-d]pyrimidin-4-one hydrate trifluoroacetate] | – | – | IC50 (First Test (Table 3)): 1.6 nM; Potency relative to Comparative Example 1 (higher = more potent) [4]: 144
O=C(CCNCc1nc(Cc2ccccc2)no1)N1CCc2nc(SC3CCC3)n(-c3ccccc3)c(=O)c2C1 [Example 34, 6-[3-[(3-benzyl-1,2,4-oxadiazol-5-yl)methylamino]propanoyl]-2-cyclobutylsulfanyl-3-phenyl-7,8-dihydro-5H-pyrido[4,3-d]pyrimidin-4-one trifluoroacetate] | 3.2 | 47 | –
